From patent US20030187058A1, “Combination of lipoic acids and conjugated acids for treating diabetic disorders” (priority 2000, published 2003)

Experiments:
epitrochlearis muscle = experiment: 2-Deoxyglucose uptake (glucose transport activity) in epitrochlearis muscle removed from treated obese Zucker rats, incubated in vitro; type: in vivo, obese Zucker rat (fa/fa); conditions: obese Zucker rats treated 18-20 days; for 2-Deoxyglucose level, Increase: insulin-stimulated minus basal; for 2-Deoxyglucose level, + Insulin [5 mU/ml] / 2-Deoxyglucose level, Basal: R-LA 10 mg/kg ip, CLA 0.3 mg/kg (table) by gavage; for 2-Deoxyglucose level, + Insulin [5 mU/ml]: insulin 5 mU/ml in vitro; for 2-Deoxyglucose level, Basal: no insulin
From the text: (§1) The obese Zucker rat (fa/fa) is an animal model of insulin resistance, glucose intolerance, hyperinsulinaemia and dyslipidaemia. This model was used to determine the effect of four different forms of diet (control, R-lipoic acid (R—LA), conjugated linoleic acid (CLA) and a combination of conjugated linoleic acid and R-lipoic acid) on insulin-induced skeletal muscle glucose transport activity and on glucose tolerance.
(§2) The test animals were maintained on regular chow and water ad libitum. […] R-lipoic acid was administered by intraperitoneal injection; conjugated linoleic acid by gavage. The treatment period lasted for 18-20 days.
(§3) 24 hours after the final treatment and having been restricted to 4 g chow during the previous 13 hours, animals were deeply anaesthetised with pentobarbital sodium (50 mg/kg ip). Right soleus muscles and both right and left epitrochlearis muscles were surgically removed and prepared for incubation in vitro. Muscles were prepared as described by Peth J A et al. (Am J Physiol Regulatory Integrative Comp Physiol 2000; 278: R453-R459). Glucose transport activity was then determined as described by Hendriksen and Halseth (J Appl Physiol 1994; 76: 1862-1867).

skeletal muscle = experiment: Insulin-induced skeletal muscle glucose transport activity in treated obese Zucker rats (summary statement); type: in vivo, obese Zucker rat (fa/fa); conditions: each substance alone
From the text: as §1
The test animals were maintained on regular chow and water ad libitum. At the age of 9-10 weeks, the animals were assigned to either a vehicle-treated control group or to intervention groups receiving either R-lipoic acid (10 mg/kg bodyweight), conjugated linoleic acid (c9,t11:t10,c12; 50:50; 0.3 g/kg bodyweight) or both. R-lipoic acid was administered by intraperitoneal injection; conjugated linoleic acid by gavage. The treatment period lasted for 18-20 days.
as §3, with “Muscles were prepared as described by Peth J A et al. (Am J Physiol Regulatory Integrative Comp Physiol 2000; 278: R453-R459).” left out

soleus muscle = experiment: 2-Deoxyglucose uptake (glucose transport activity) in soleus muscle removed from treated obese Zucker rats, incubated in vitro; type: in vivo, obese Zucker rat (fa/fa); conditions: obese Zucker rats treated 18-20 days; for 2-Deoxyglucose level, Increase: insulin-stimulated minus basal; for 2-Deoxyglucose level, + Insulin [5 mU/ml] / 2-Deoxyglucose level, Basal: R-LA 10 mg/kg ip, CLA 0.3 mg/kg (table) by gavage; for 2-Deoxyglucose level, + Insulin [5 mU/ml]: insulin 5 mU/ml in vitro; for 2-Deoxyglucose level, Basal: no insulin
From the text: as §1, §2, §3

diabetic polyneuropathy = conditions: 3-week intravenous and subsequent 6-months oral treatment, cited from earlier work
NIDDM patients = conditions: 800 mg each day for 4 months; cited from earlier work
[1] = tested on: patients with type II diabetes; conditions: single parenteral dose of 1,000 mg; cited from earlier work
diabetic neuropathy = conditions: intravenous 600 mg a day for 3 weeks; cited from earlier work

Compound	2-Deoxyglucose level, Increase (epitrochlearis muscle)	2-Deoxyglucose level, + Insulin [5 mU/ml] (epitrochlearis muscle)	2-Deoxyglucose level, Basal (epitrochlearis muscle)	skeletal muscle glucose transport activity following stimulation by insulin, beyond the increase in the vehicle-treated control group (skeletal muscle)	2-Deoxyglucose level, Increase (soleus muscle)	2-Deoxyglucose level, + Insulin [5 mU/ml] (soleus muscle)	2-Deoxyglucose level, Basal (soleus muscle)	neuropathic deficits (diabetic polyneuropathy)	neuropathic symptoms (diabetic polyneuropathy; versus placebo)	cardiovascular autonomic symptoms (NIDDM patients)	glucose utilization [1]	symptomatic complaints (diabetic neuropathy)
conjugated linoleic acid [CLA]	123 +/− 13 pmol/mg muscle	248 +/− 14 pmol/mg muscle	126 +/− 4 pmol/mg muscle	Neither R-lipoic acid nor conjugated linoleic acid alone increased	261 +/− 13 pmol/mg muscle	492 +/− 9 pmol/mg muscle	231 +/− 6 pmol/mg muscle	–	–	–	–	–
O=C(O)CCCCC1CCSS1 (stereo not shown) [lipoic acid, 5-(1,2-dithiolan-3-yl)valeric acid]	–	–	–	–	–	–	–	appeared to have a beneficial effect	no effect on neuropathic symptoms distinguishable from placebo	no significant change	distinct improvement	decreased
O=C(O)CCCC[C@@H]1CCSS1 [R-LA, (R)-5-(1,2-dithiolan-3-yl)-valeric acid]	102 +/− 11 pmol/mg muscle	225 +/− 8 pmol/mg muscle	123 +/− 3 pmol/mg muscle	Neither R-lipoic acid nor conjugated linoleic acid alone increased	258 +/− 16 pmol/mg muscle	481 +/− 19 pmol/mg muscle	224 +/− 7 pmol/mg muscle	–	–	–	–	–
